From patent US6706740B2, “Fungicidal heterocyclic aromatic amides and their compositions, methods of use and preparation” (Dow AgroSciences LLC, priority 1999, dated 2004) come the findings set out here.

As usually defined, the inhibition is the share of the control response that was lost under treatment. What is called melting point is the temperature of the solid-liquid transition.

For series [1], the system named is Magnaporthe grisea (Pyricularia oryzae—PYRIOR). Description: microbe, parasite or virus in culture. The note with it: Pyricularia oryzae, read-out: PYRIOR in vitro Growth Inhibition. It counts as cell-based.
Series [2] relates to Phytophthora infestans—PHYTIN. Description: whole plant or invertebrate. It counts as in vivo. The note with it: Phytophthora, in Solanum lycopersicum, 24 h, read-out: PHYTIN in vivo 1 Day Protectant.
The test system of series [3] is Leptosphaeria nodorum—LEPTNO. The series can be described thus: Glume Blotch of Wheat, in vivo whole plant, 24 Hour Protectant. Particulars: for pest or weed control at 100 ppm: Leptosphaeria, read-out: LEPTNO in vivo 1 Day Protectant.
Series [4] deals with Phytophthora infestans (PHYTIN). Description: microbe, parasite or virus in culture. It counts as cell-based. Particulars: Phytophthora infestans, read-out: PHYTIN in vitro Growth Inhibition.
Series [5] relates to Erysiphe graminis—ERYSGT. The series can be described thus: Powdery Mildew of Wheat, in vivo whole plant, 24 Hour Protectant. Particulars: for pest or weed control at 100 ppm: Erysiphe, read-out: ERYSGT in vivo 1 Day Protectant.
Series [6] deals with Puccinia recondita—PUCCRT. The series can be described thus: Brown Rust of Wheat, in vivo whole plant, 24 Hour Protectant. The note with it: for pest or weed control at 100 ppm: Puccinia, read-out: PUCCRT in vivo 1 Day Protectant.
Series [7] relates to Ustilago maydis (USTIMA). The series can be described thus: microbe, parasite or virus in culture. It counts as cell-based. The note with it: Mycosarcoma maydis, read-out: USTIMA in vitro Growth Inhibition.
For series [8], the system named is Stagonospora nodorum (Leptosphaeria nodorum—LEPTNO). Description: In vitro fungal growth inhibition, Stagonospora nodorum (LEPTNO). It counts as cell-based. The note with it: Leptosphaeria, read-out: LEPTNO in vitro Growth Inhibition.
Series [9] concerns Mycosphaerella graminicola (Septoria tritici—SEPTTR). Description: In vitro fungal growth inhibition, Mycosphaerella graminicola (SEPTTR). It counts as cell-based. The note with it: Zymoseptoria tritici, read-out: SEPTTR in vitro Growth Inhibition.
The subject of series [10] is Rhizoctonia solani (RHIZSO). Description: microbe, parasite or virus in culture. It counts as cell-based. Particulars: Rhizoctonia solani, read-out: RHIZSO in vitro Growth Inhibition.
The test system of series [11] is Septoria tritici—SEPTTR. Description: Leaf Blotch of Wheat, in vivo whole plant, 24 Hour Protectant. Particulars: for pest or weed control at 100 ppm: Zymoseptoria tritici, 24 h, control of fungal infection vs untreated plants, read-out: SEPTTR in vivo 1 Day Protectant.
The mark [12] stands for this setting: 100 ppm spray, wheat, 24 hour protectant, % control of fungal infection vs untreated plants.
Where [13] appears, read: 100 ppm spray, wheat, 24 hour protectant, control of fungal infection vs untreated plants.
The mark [14] stands for this setting: 100 ppm spray, 24 hour protectant, wheat, control of fungal infection vs untreated plants.
Setting [15] is: 100 ppm spray, 24 hour protectant, wheat.
[16] abbreviates: wheat plants sprayed at 100 ppm, inoculated after 24 hours, control of fungal infection vs untreated plants.

Where two headings read alike, the source gives them in different places. Where only a bound is given, the exact number is not on record here.

Consider `COc1ccnc(C(=O)Nc2ccc(Oc3ccc(C(F)(F)F)cc3)cc2)c1OS(C)(=O)=O` [Compound 723], for which the melting point is 177 to 180 °C. For the same compound, the inhibition at 25 ppm in series [1] is below 80%. Also, the pest or weed control at 100 ppm in series [2] lay in the range of 25 to 74%. For the same compound, the pest or weed control at 100 ppm in series [3] (setting [12]) lay within 25 to 74%. The inhibition at 25 ppm in series [4] is below 80%. Also, in [5] (setting [12]), the pest or weed control at 100 ppm is below 25%. In series [6] (setting [12]), the pest or weed control at 100 ppm was in the range of 25 to 74%. Also, the inhibition at 25 ppm in [7] was below 80%. Besides, the inhibition at 25 ppm in series [8] (25 ppm in growth medium) is below 80%. For the same compound, the inhibition at 25 ppm in series [9] (25 ppm in growth medium) is below 80%. Also, the inhibition at 25 ppm in series [10] was below 80%.
In turn, `COc1ccnc(C(=O)NC2CCN(Cc3cccc(C(F)(F)F)c3)CC2)c1O.O=C(O)/C=C\C(=O)O.O=C(O)/C=C\C(=O)O` [Compound 307] gave a melting point of 168 to 170 °C. The inhibition at 25 ppm in series [1] was below 80%. Besides, the pest or weed control at 100 ppm in series [2] is below 25%. Further, the pest or weed control at 100 ppm in [3] (24 h) is below 25%. In addition, the inhibition at 25 ppm in series [4] is below 80%. For the same compound, the pest or weed control at 100 ppm in series [5] (24 h) lay in the range of 25 to 74%. In addition, in series [6] (24 h), the pest or weed control at 100 ppm is below 25%. In addition, in series [7], the inhibition at 25 ppm was below 80%. In addition, the inhibition at 25 ppm in series [8] is below 80%. The inhibition at 25 ppm in [9] is below 80%. Further, the inhibition at 25 ppm in [10] was below 80%.
`COc1ccnc(C(=O)N[C@H]2COC(=O)[C@H](Cc3ccccc3)[C@@H](OC(=O)C(C)C)[C@H](C)OC2=O)c1OS(C)(=O)=O` [Compound 721] displayed a melting point of 189 to 194 °C. For the same compound, the inhibition at 25 ppm in [1] was below 80%. Further, the pest or weed control at 100 ppm in series [2] was below 25%. The “LEPTNO in vivo 1 Day Protectant” value in [3] (setting [12]) is “+ +”. Also, the inhibition at 25 ppm in series [4] is below 80%. In addition, the pest or weed control at 100 ppm in [5] (setting [12]) was below 25%. Besides, in series [6] (setting [12]), the “PUCCRT in vivo 1 Day Protectant” value is reported as “+ +”. Also, the inhibition at 25 ppm in [7] was below 80%. Also, in series [8] (25 ppm in growth medium), the inhibition at 25 ppm is above 80%. Also, in series [9] (25 ppm in growth medium), the inhibition at 25 ppm is below 80%. For the same compound, the inhibition at 25 ppm in [10] was below 80%.
As to `O=C(NC1CCCCCCC1)c1ncccc1O` [Compound 203], the melting point lay within 63 to 64 °C. Besides, in series [1], the inhibition at 25 ppm is above 80%. Moreover, in [4], the inhibition at 25 ppm is below 80%. Also, the inhibition at 25 ppm in [7] was below 80%. For the same compound, the inhibition at 25 ppm in series [8] (25 ppm in growth medium) was above 80%. Further, the inhibition at 25 ppm in series [9] (25 ppm in growth medium) is above 80%. In addition, the inhibition at 25 ppm in series [10] was above 80%.
As for `COc1ccnc(C(=O)N[C@H]2COC(=O)[C@H](Cc3ccccc3)[C@@H](OC(=O)C(C)C)[C@H](C)OC2=O)c1OS(=O)(=O)c1ccc(C)cc1` [Compound 722], the melting point lay within 153 to 155 °C. Besides, the inhibition at 25 ppm in [1] is below 80%. For the same compound, the pest or weed control at 100 ppm in [2] is below 25%. Further, the “LEPTNO in vivo 1 Day Protectant” value in series [3] (setting [12]) is given as “+ +”. The inhibition at 25 ppm in [4] is below 80%. For the same compound, the pest or weed control at 100 ppm in series [5] (setting [12]) was below 25%. Moreover, in series [6] (setting [12]), the pest or weed control at 100 ppm was in the range of 25 to 74%. The inhibition at 25 ppm in series [7] was below 80%. Also, the inhibition at 25 ppm in series [8] (25 ppm in growth medium) was below 80%. Also, in series [9] (25 ppm in growth medium), the inhibition at 25 ppm is below 80%. For the same compound, the inhibition at 25 ppm in [10] was below 80%.
The compound `COc1ccnc(C(=O)N[C@H]2COC(=O)[C@H](Cc3ccccc3)[C@@H](OC(=O)C(C)C)[C@H](C)OC2=O)c1OC(=O)C(C)C` [Compound 602] showed a melting point of 160 to 161 °C. In addition, the inhibition at 25 ppm in series [1] is below 80%. Moreover, the pest or weed control at 100 ppm in [2] is below 25%. Moreover, the inhibition at 25 ppm in series [4] was below 80%. For the same compound, the pest or weed control at 100 ppm in series [5] (setting [12]) was below 25%. Moreover, the inhibition at 25 ppm in [7] is below 80%. The inhibition at 25 ppm in [8] (25 ppm in growth medium) was above 80%. The inhibition at 25 ppm in series [9] (25 ppm in growth medium) was below 80%. Besides, the inhibition at 25 ppm in series [10] was below 80%.
On to `COCC(=O)Oc1c(OC)ccnc1C(=O)N[C@H]1COC(=O)[C@H](Cc2ccccc2)[C@@H](OC(=O)C(C)C)[C@H](C)OC1=O` [Compound 653], for which the inhibition at 25 ppm in series [1] is below 80%; in series [4], below 80%; in series [7], below 80%; in series [8] (25 ppm in growth medium) it was above 80%; in [9] (25 ppm in growth medium) it was above 80%; in [10], below 80%. For the same compound, the pest or weed control at 100 ppm in series [2] is below 25%. The “LEPTNO in vivo 1 Day Protectant” value in series [3] (setting [12]) is “+ +”. In addition, the “SEPTTR in vivo 1 Day Protectant” value in [11] (setting [12]) was “+ +”. Moreover, in [5] (setting [12]), the “ERYSGT in vivo 1 Day Protectant” value is “+ +”. The “PUCCRT in vivo 1 Day Protectant” value in series [6] (setting [12]) is “+ +”.
Take `COc1ccnc(C(=O)NC(COC(=O)C(Cc2ccccc2)C(C)OC(=O)C(C)C)C(=O)OC(C)C)c1O` (stereo not shown) [Compound 355]: the inhibition at 25 ppm in [1], in series [4], in [7], in series [8] (25 ppm in growth medium), in series [9] (25 ppm in growth medium) and in [10] was below 80% each time. Besides, the pest or weed control at 100 ppm is below 25% in series [2]; below 25% in [3] (setting [13]); below 25% in [11] (100 ppm spray, wheat, 24 hour protectant); below 25% in series [5] (setting [13]); 25 to 74% in series [6] (setting [13]).
With `COc1ccnc(C(=O)NC2CCN(C(=O)CCc3ccccc3)CC2)c1O` [Compound 309], the inhibition at 25 ppm in [1], in series [4], in [7], in series [8] (25 ppm in growth medium), in [9] (25 ppm in growth medium) and in series [10] was below 80% throughout. Moreover, the pest or weed control at 100 ppm in series [2] was below 25%; in [3] (setting [14]), 25 to 74%; in series [11] (setting [15]), below 25%; in series [5] (setting [14]) it was 25 to 74%; in [6] (setting [14]), below 25%.
With `COc1ccnc(C(=O)N[C@H]2CO[C@@H](C(C)Cc3ccc(C(C)(C)C)cc3)OC2)c1O` (stereo partly shown) [Compound 317], the inhibition at 25 ppm in series [1], in series [4], in [7], in series [8] (25 ppm in growth medium), in series [9] (25 ppm in growth medium) and in [10] was below 80% throughout. For the same compound, the pest or weed control at 100 ppm in [2] is 25 to 74%; in series [3] (setting [14]), below 25%; in [11] (setting [15]) it was below 25%; in series [5] (setting [14]), below 25%. Also, the “PUCCRT in vivo 1 Day Protectant” value in [6] (setting [14]) is “+ +”.
As to `O=C(NCc1ccccc1)c1ccncc1O` [Compound 506], the inhibition at 25 ppm in series [1], in series [4], in series [7], in series [8] (25 ppm in the growth medium), in [9] (25 ppm in the growth medium) and in series [10] was below 80% throughout. For the same compound, the pest or weed control at 100 ppm was below 25% in series [2]; below 25% in series [3] (setting [16]); below 25% in [11] (wheat plants sprayed at 100 ppm, inoculated after 24 hours); below 25% in series [5] (setting [16]); below 25% in series [6] (setting [16]).
